Laboratory results from patent US20230044958A1, “METHOD OF TREATING VIRUS INFECTION USING A TLR7 AGONIST” (Hoffmann-La Roche Inc., priority 2019, published 2023).

Experiments:
HBV [1] = experiment: Treatment of HBV-infected patients with Compound (I), alone or in combination; type: in vivo, human
From the text: (§1) In this invention, methods of the entire treatment comprising Compound (I) monotherapy or Compound (I) in combination with other anti-HBV drug(s) for 24-120 weeks were developed.
Furthermore, treatment method of Compound (I) in combination with other anti-HBV drugs results in significant hepatitis B surface antigen (HBsAg) decline or loss. […] However, the method of treatment of this invention with Compound (I) can also induce robust HBV DNA and HBV RNA decline in such patients.

[2] = Safety and tolerability of Compound (I) in chronic hepatitis B patients; type: in vivo, human
From the text: as §1

HBV [3] = conditions: cited from earlier work
[4] = patients under the treatment methods of the invention

Row | Structure (SMILES) | hepatitis B surface antigen (HBsAg) decline or loss (HBV [1]; Compound (I) in combination with other anti-HBV drugs) | HBV DNA decline (HBV [1]; [4]) | HBV RNA decline (HBV [1]; [4]) | safety and tolerability [2] | HBsAg decline (HBV [3]; weekly dosing for 4, 8, 12 weeks, virally suppressed patients with chronic hepatitis B) | change in HBsAg after treatment (HBV [3]; weekly dosing for 12 weeks in combination with tenofovir disoproxil fumarate, viremic CHB patients not on oral antiviral treatment)
1 | CC[C@H](OC(C)=O)[C@@H]1C[C@@H](O)[C@H](n2c(=O)sc3cnc(N)nc32)O1 [Compound (I), (1S)-1-[(2S,4R,5R)-5-(5-amino-2-oxo-thiazolo[4,5-d]pyrimidin-3-yl)-4-hydroxy-tetrahydrofuran-2-yl]propyl] acetate] | significant | robust | robust | safe and well tolerated | – | –
2 | CCCCOc1nc(N)c2c(n1)N(Cc1cccc(CN3CCCC3)c1)CC(=O)N2 [Vesatolimod] | – | – | – | – | did not show HBsAg decline | did not demonstrate any meaningful change in HBsAg
